Laboratory results published in patent US20250171437A1 (Agios Pharmaceuticals,Inc., priority 2022, published 2025).

Molecular target: T1, human PAH with the R408W mutation (A375 R408W cells) (Homo sapiens, UniProt P00439, R408W)
T1 construct: expressed in transfected cells
T1 sequence (P00439 1-452 R408W): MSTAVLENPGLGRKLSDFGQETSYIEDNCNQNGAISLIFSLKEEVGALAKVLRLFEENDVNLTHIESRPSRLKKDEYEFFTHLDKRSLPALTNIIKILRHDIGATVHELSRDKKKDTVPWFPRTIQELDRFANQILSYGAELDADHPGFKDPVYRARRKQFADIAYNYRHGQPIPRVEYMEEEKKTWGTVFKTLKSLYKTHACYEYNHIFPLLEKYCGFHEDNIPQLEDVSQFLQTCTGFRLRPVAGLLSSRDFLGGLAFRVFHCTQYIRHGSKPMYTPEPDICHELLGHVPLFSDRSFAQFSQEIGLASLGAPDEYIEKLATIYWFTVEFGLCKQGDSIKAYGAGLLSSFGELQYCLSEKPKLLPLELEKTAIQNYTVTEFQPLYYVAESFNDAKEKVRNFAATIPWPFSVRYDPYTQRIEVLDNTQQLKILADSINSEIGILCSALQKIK
Assay: Cell Based Phenylalanine Flux Assay
Conditions: 24 hrs with compound, then 20 μM sepiapterin and 800 μM 13C9,15N-Phenylalanine for 4 hours, 13C-Tyrosine by LC-MS, average where tested multiple times
Summary of the method: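 A375 cells stably expressing human PAH R408W treated 24 h at 37° C with a 10-point 2-fold dose curve in duplicate, 0.5% DMSO. Then 20 μM sepiapterin and 800 μM 13C9,15N-Phe added for 4 h; 13C-Tyr in media measured by LC-MS to give AC50.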

[1] = A375 cells expressing R408W PAH

Structure (SMILES) | AC50 (A375 R408W cells) | AC50 [1]
CC(C)(F)c1nnc(C(=O)N2CCc3[nH]cnc3[C@@H]2c2nc3c(F)ccc(F)c3o2)o1 [Example 809, (R)-(4-(4,7-difluorobenzo[d]oxazol-2-yl)-6,7-dihydro-1H-imidazo[4,5-c]pyridin-5(4H)-yl)(5-(2-fluoropropan-2-yl)-1,3,4-oxadiazol-2-yl)methanone] | ≤ 500 nM | –
O=C(c1oc(-c2ccccn2)nc1C1CC1)N1CCc2[nH]cnc2[C@H]1c1nc2cc(F)ccc2o1 [Example 43, (S)-(4-cyclopropyl-2-(pyridin-2-yl)oxazol-5-yl)(4-(5-fluorobenzo[d]oxazol-2-yl)-6,7-dihydro-1H-imidazo[4,5-c]pyridin-5(4H)-yl)methanone] | ≤ 500 nM | –
O=C(c1nnc(-c2cn[nH]c2)o1)N1CCc2[nH]cnc2C1c1nc2ccc(F)cc2o1 (stereo not shown) | – | 1000 to 5000 nM
COc1ccc(-c2nc(C(F)F)c(C(=O)N3CCc4[nH]cnc4[C@H]3c3nc4cccc(F)c4o3)o2)nc1 [Example 616, (S)-(4-(difluoromethyl)-2-(5-methoxypyridin-2-yl)oxazol-5-yl)(4-(7-fluorobenzo[d]oxazol-2-yl)-6,7-dihydro-1H-imidazo[4,5-c]pyridin-5(4H)-yl)methanone] | ≤ 500 nM | –
O=C(c1oc(-c2ccncn2)nc1C(F)F)N1CCc2[nH]cnc2[C@@H]1c1nc2cccc(F)c2o1 [Example 774, (R)-(4-(difluoromethyl)-2-(pyrimidin-4-yl)oxazol-5-yl)(4-(7-fluorobenzo[d]oxazol-2-yl)-6,7-dihydro-1H-imidazo[4,5-c]pyridin-5(4H)-yl)methanone] | ≤ 500 nM | –
C[C@H](O)c1nc(C(F)F)c(C(=O)N2CCc3[nH]cnc3[C@H]2c2nc3cccc(F)c3o2)o1 [Example 243, (4-(difluoromethyl)-2-((S)-1-hydroxyethyl)oxazol-5-yl)((S)-4-(7-fluorobenzo[d]oxazol-2-yl)-6,7-dihydro-1H-imidazo[4,5-c]pyridin-5(4H)-yl)methanone] | ≤ 500 nM | –
O=C(c1cnn2cc(N3CCOCC3)ccc12)N1CCc2[nH]cnc2C1c1nc2cc(F)ccc2o1 (stereo not shown) | – | ≥ 5000 nM
O=C(c1cnn2cc(N3CCC(O)CC3)ccc12)N1CCc2[nH]cnc2[C@H]1c1nc2cccc(F)c2o1 [Example 371, (S)-(4-(7-fluorobenzo[d]oxazol-2-yl)-6,7-dihydro-1H-imidazo[4,5-c]pyridin-5(4H)-yl)(6-(4-hydroxypiperidin-1-yl)pyrazolo[1,5-a]pyridin-3-yl)methanone] | 500 to 1000 nM | –
O=C(c1cnn2cc(N3CCC(F)CC3)ccc12)N1CCc2[nH]cnc2[C@@H]1c1nc2c(F)cccc2o1 [Example 478, (R)-(4-(4-fluorobenzo[d]oxazol-2-yl)-6,7-dihydro-1H-imidazo[4,5-c]pyridin-5(4H)-yl)(6-(4-fluoropiperidin-1-yl)pyrazolo[1,5-a]pyridin-3-yl)methanone] | ≥ 5000 nM | –
O=C(c1nnc(-c2cccnc2)o1)N1CCc2[nH]cnc2[C@H]1c1nc2cc(F)ccc2o1 [Example 399, (S)-(4-(5-fluorobenzo[d]oxazol-2-yl)-6,7-dihydro-1H-imidazo[4,5-c]pyridin-5(4H)-yl)(5-(pyridin-3-yl)-1,3,4-oxadiazol-2-yl)methanone] | 500 to 1000 nM | –
CC(F)(F)c1ncoc1C(=O)N1CCc2[nH]cnc2[C@@H]1c1nc2cccc(F)c2o1 [Example 619, (R)-(4-(1,1-difluoroethyl)oxazol-5-yl)(4-(7-fluorobenzo[d]oxazol-2-yl)-6,7-dihydro-1H-imidazo[4,5-c]pyridin-5(4H)-yl)methanone] | 1000 to 5000 nM | –
Cn1nc(C(F)F)cc1C(=O)N1CCc2[nH]cnc2[C@H]1c1nc2ccccc2o1 [Example 731, (S)-(4-(benzo[d]oxazol-2-yl)-6,7-dihydro-1H-imidazo[4,5-c]pyridin-5(4H)-yl)(3-(difluoromethyl)-1-methyl-1H-pyrazol-5-yl)methanone] | ≤ 500 nM | –
CC(C)(O)c1nc(Cl)c(C(=O)N2CCc3[nH]cnc3[C@@H]2c2nc3ccc(F)cc3o2)o1 [Example 270, (R)-(4-chloro-2-(2-hydroxypropan-2-yl)oxazol-5-yl)(4-(6-fluorobenzo[d]oxazol-2-yl)-6,7-dihydro-1H-imidazo[4,5-c]pyridin-5(4H)-yl)methanone] | ≥ 5000 nM | –
